Where “and” joins values, the source holds several entries; their conditions need not be identical. Equal entries are not always repeated.
Key:
CTLL-2 = CTLL-2 proliferation; format: cell-based; conditions: Table 4
[1] = PK study E3826-U1704 in naïve C57BL/6 mice (human IL-2 ELISA of plasma); format: in vivo
Procedure: Terminal blood samples were collected via cardiac puncture at the points indicated. […] Plasma and blood cells (in both studies) and tumors in study E3826-U1803 were collected for PK and PD analyses.
Bioanalysis of plasma samples was performed using a qualified human IL-2 ELISA assay (Abcam, Cambridge, UK). Concentrations of Aldesleukin, E62_30kD and P65_30kD and the internal standard in samples derived from plasma were determined using an ELISA assay. […] The PK data were imported into Phoenix WinNonlin v6.4 (Certara/Pharsight, Princeton, N.J.) for analysis. The group mean plasma concentration versus time data were analyzed with noncompartmental methods using an IV bolus administration model.

[2] = MTD / toxicology study E3826-U1802 in naïve Balb/c mice (hematology, histopathology, organ weight, cytokines); format: in vivo; conditions: mouse, in vivo
Procedure: A dose ranging study of P65_30kD was conducted in naïve female Balb/c mice at Crown Biosciences, Inc. (San Diego, Calif.). […] Blood samples were drawn via sub mandibular vein at 8 time points (0.25, 1, 4, 12, 24, 34, 48 & 72 h).
A major of toxicity associated with high-dose aldesleukin is vascular leak syndrome and associated Cytokine Release Syndrome (CRS). […] The analysis performed was hematology, histopathology, organ weight, and cytokine analyses.

CT-26 colon tumors = test: Efficacy in CT-26 tumor-bearing Balb/c mice, Studies 1-3 (tumor growth inhibition, survival); format: in vivo; conditions: for median survival time: Compound A 6 mg/kg QWx3, anti-PD-1 antibody 10 mg/kg BIWx3, or both
Description: Studies of Compound A as monotherapy and in combination with an anti-PD-1 antibody were undertaken in Balb/c female mice. […] Balb/c female mice, 7-8 weeks of age, with an average weight of 18 to 22 g were purchased from Taconic Biosciences by HD Biosciences for study 3. Cryogenically preserved vials of CT-26 colon cancer cells were purchased from American Tissue Type Collection (ATCC, Manassas, Va.). Cells were thawed and cultured according to the manufacturer's protocol. On the day of tumor cell inoculation, cells were washed in serum-free media, counted, and resuspended in cold serum-free media at a concentration of 250,000 (studies 1 and 2) or 300,000 (study 3) viable cells per 0.1 mL. The CT-26 cells (0.1 mL) were injected subcutaneously into the flanks of individual mice and tumors were allowed to grow.
For studies 1 and 2 in which a combination of Compound A and an anti-PD-1 antibody were used, the antibody used was anti-mouse PD-1 (BioXcell; RMP1-14) and the control antibody was IgG1 isotype antibody (BioXcell; catalog #BP0089, lot #2A3). For study 3 in which an anti-PD-1 antibody was used, the antibody used was anti-mouse PD-1 (BioXcell; catalog #BP0146, RMP1-14, lot #695318A1) and the control antibody was IgG1 isotype antibody (BioXcell; catalog #BP0089, lot #2A3).
Lyophilized Compound A was reconstituted into 10 mg/mL stock with 0.1 M acetic acid. It was then further diluted into working concentration with 1× phosphate buffered saline (PBS). The compound was reconstituted and diluted within an hour of dosing of animals and kept on ice until dosing. The lyophilized compound was stored at −80° C. before use. Vehicle was stored at 4° C.
Three separate efficacy studies were performed using CT-26 tumor-bearing Balb/c mice. The design for study 1, which evaluated Compound A for dose-dependent efficacy as a single agent, is outlined in Table 19. The designs for studies 2 and 3, which evaluated the efficacy of Compound A in combination with an anti-PD-1 antibody, are outlined in Table 20 and Table 21, respectively. The route of administration for Compound A was intravenous (IV). IV dosing in the mice was done via the tail vein. The antibody was administered intraperitoneally (IP). All agents were administered based on the individual body weight of each animal obtained immediately prior to each dosing. Details on the dosing regimen are described below.
In Study 1, CT-26 tumor-bearing mice were treated with vehicle IV once a week for a total of 3 doses (QWx3) or Compound A at 0.3, 1, or 3 mg/kg IV, either once a week for a total of three doses (QWx3), or once every 2 weeks for a total of 2 doses (Q2Wx2), starting on Day 4 following tumor cell inoculation when the average tumor volume was ˜80 mm^3.
In Study 2, CT-26 tumor-bearing mice were treated on Day 5 following tumor cell inoculation when the average tumor volume was ˜80 mm^3. Dosing was with vehicle IV QWx3+ IgG isotype control IP or Compound A at 3 or 6 mg/kg IV, on a QWx3 dosing schedule, or anti-PD-1 antibody at 10 mg/kg IP, or the combination of Compound A at 6 mg/kg IV QWx3+ anti-PD-1 antibody at 10 mg/kg IP. The IP dosing of the antibody in all cases was twice a week for 3 weeks with a total of 6 doses (BIWx3).
In Study 3, CT-26 tumor-bearing mice were treated on Day 7 following tumor cell inoculation when the average tumor volume was ˜70 mm3. Dosing was with vehicle IV QWx3+ IgG isotype control IP BIWx3; or Compound A at 1, 3, 6, or 9 mg/kg IV on a QWx3 dosing schedule, or anti-PD-1 antibody at 10 mg/kg IP BIWx3; or the combination of Compound A at 1, 3, or 6 mg/kg IV QWx3+ anti-PD-1 antibody at 10 mg/kg IP BIWx3.
Animals were observed daily for clinical signs.
Tumor growth was monitored using digital caliper measurements every 3 to 4 days until the end of the study. Tumor volume was calculated as Width^2×Length/2, where width is the smallest dimension and length is the largest. Raw tumor volume data are presented in the study reports. […]

[3] = C57BL/6 female mice, single IV bolus 0.3 mg/kg, E62_5 kD from a separate study

## P65_30kD: SEQ ID NO: 25: IL-2 (SEQ ID NO: 4) with P65 replaced by AzK click-conjugated to methoxy linear 30 kDa PEG [Compound P65_30kD]
CTLL-2
  EC50, CTLL-2 proliferation: 677,198 pg/mL
[1]; 0.3 mg/kg IV
  fold extended t1/2 compared to aldesleukin: 23 fold
  fold reduced CL compared to aldesleukin: about 198 fold
[1]; [3]
  AUC0-t: 45,600 h*ng/mL
  AUCINF: 45,600 h*ng/mL
  CL: 0.11 mL/min/kg
  Cmax: 4,870 ng/mL
  Tmax: 1.8 min
  Vss (distribution volume): 0.0824 L/kg
  t½: 13.3 h
[1]; single IV bolus, 120 h = last measured time point
  mean plasma concentrations measurable out to (post-dose): 120 h
[2]
  systemic levels of IFNγ: transient elevation
CT-26 colon tumors; Study 2
  median survival time: 27 days
CT-26 colon tumors; Study 3, Compound A 3 mg/kg, anti-PD-1 antibody 10 mg/kg, or both, day printed as 'Compound A days'
  animals surviving: 0 of 14 animals
CT-26 colon tumors; Study 3
  median survival time: 35 days
CT-26 colon tumors; Study 3, Compound A 6 mg/kg, anti-PD-1 antibody 10 mg/kg, or both, day printed as 'Compound A days'
  animals surviving tumor-free: 0 of 14 animals
CT-26 colon tumors; Study 3, Compound A 9 mg/kg IV QWx3
  animals found dead following >15% body weight loss due to treatment: 2 of the 14 animals
CT-26 colon tumors; Study #1, Compound A 0.3 mg/kg IV Q2Wx2, Day 15
  % TGI (Relative to Vehicle Control): 20%
CT-26 colon tumors; Study #1, Compound A 0.3 mg/kg IV QWx3, Day 15, listed as Compound A, 0.3 mg/kg
  % TGI (Relative to Vehicle Control): 19%
CT-26 colon tumors; Study #1, Compound A 1 mg/kg IV Q2Wx2, Day 15
  % TGI (Relative to Vehicle Control): 27%
CT-26 colon tumors; Study #1, Compound A 1 mg/kg IV QWx3, Day 15, listed as Compound A, 1 mg/kg
  % TGI (Relative to Vehicle Control): 31%
CT-26 colon tumors; Study #1, Compound A 3 mg/kg IV Q2Wx2, Day 15, listed as Compound A, 3 mg/kg
  % TGI (Relative to Vehicle Control): 45%
CT-26 colon tumors; Study #1, Compound A 3 mg/kg IV QWx3, Day 15, listed as Compound A, 3 mg/kg
  % TGI (Relative to Vehicle Control): 52% and 51* %
CT-26 colon tumors; Study #2, Compound A 3 mg/kg IV QWx3, listed as Compound A, 3 mg/kg
  % TGI (Relative to Vehicle Control): 56.3% and 56%
CT-26 colon tumors; Study #2, Compound A 6 mg/kg IV QWx3, listed as Compound A, 6 mg/kg
  % TGI (Relative to Vehicle Control): 35.6% and 36* %
CT-26 colon tumors; Study #3, Compound A 1 mg/kg IV QWx3, listed as Compound A, 1 mg/kg
  % TGI (Relative to Vehicle Control): 29.8% and 30%
CT-26 colon tumors; Study #3, Compound A 3 mg/kg IV QWx3, listed as Compound A, 3 mg/kg
  % TGI (Relative to Vehicle Control): 58.8% and 59*** %
CT-26 colon tumors; Study #3, Compound A 6 mg/kg IV QWx3, listed as Compound A, 6 mg/kg
  % TGI (Relative to Vehicle Control): 86.2% and 86*** %
CT-26 colon tumors; Study #3, Compound A 9 mg/kg IV QWx3, listed as Compound A, 9 mg/kg
  % TGI (Relative to Vehicle Control): 84.8% and 85*** %

— patent US20210046160A1 (Synthorx, Inc., priority 2019, published 2021)
